# Source: paper PMC4890880 (ACS infectious diseases, 2016)
# Tested on: HepG2-A16-CD81EGFP cells
# Settings: read-out: Tox_IC50; sheet 2nd round; HepG2 cytotoxicity
row,Structure (SMILES),IC50
1,CN(C)c1ccc2c(c1)[C@@H]1C[C@@H](CC(=O)NC3CCCCC3)O[C@@H](CO)[C@@H]1O2 [BRD-K29474997-001-01-2],> 10 µM
2,COc1ccc(S(=O)(=O)N(C)C[C@H]2Oc3ccc(NC(=O)Cc4cn(C)c5ccccc45)cc3C(=O)N([C@H](C)CO)C[C@@H]2C)cc1 [BRD-K30240821-001-02-4],> 10 µM

# Same assay, conditions: sheet 2nd round; maximal inhibition in dose response
row,Structure (SMILES),Tox_max_inhibition (%)
1,CN(C)c1ccc2c(c1)[C@@H]1C[C@@H](CC(=O)NC3CCCCC3)O[C@@H](CO)[C@@H]1O2 [BRD-K29474997-001-01-2],12%
2,COc1ccc(S(=O)(=O)N(C)C[C@H]2Oc3ccc(NC(=O)Cc4cn(C)c5ccccc45)cc3C(=O)N([C@H](C)CO)C[C@@H]2C)cc1 [BRD-K30240821-001-02-4],8.48%

# Tested on: Plasmodium berghei (Pb-Luc) exoerythrocytic-stage parasites
# Settings: first series of dose-response columns; concentration 10; fraction of control
row,Structure (SMILES),normalized signal at concentration 10
1,CN(C)c1ccc2c(c1)[C@@H]1C[C@@H](CC(=O)NC3CCCCC3)O[C@@H](CO)[C@@H]1O2 [BRD-K29474997-001-01-2],1.33
2,COc1ccc(S(=O)(=O)N(C)C[C@H]2Oc3ccc(NC(=O)Cc4cn(C)c5ccccc45)cc3C(=O)N([C@H](C)CO)C[C@@H]2C)cc1 [BRD-K30240821-001-02-4],0.7772

# Same assay, conditions: first series; concentration 0.000508053; fraction of control
row,Structure (SMILES),normalized signal at concentration 0.000508053
1,CN(C)c1ccc2c(c1)[C@@H]1C[C@@H](CC(=O)NC3CCCCC3)O[C@@H](CO)[C@@H]1O2 [BRD-K29474997-001-01-2],1.31
2,COc1ccc(S(=O)(=O)N(C)C[C@H]2Oc3ccc(NC(=O)Cc4cn(C)c5ccccc45)cc3C(=O)N([C@H](C)CO)C[C@@H]2C)cc1 [BRD-K30240821-001-02-4],0.8923

# Same assay, conditions: first series; concentration 0.00152416; fraction of control
row,Structure (SMILES),normalized signal at concentration 0.00152416
1,CN(C)c1ccc2c(c1)[C@@H]1C[C@@H](CC(=O)NC3CCCCC3)O[C@@H](CO)[C@@H]1O2 [BRD-K29474997-001-01-2],1.11
2,COc1ccc(S(=O)(=O)N(C)C[C@H]2Oc3ccc(NC(=O)Cc4cn(C)c5ccccc45)cc3C(=O)N([C@H](C)CO)C[C@@H]2C)cc1 [BRD-K30240821-001-02-4],0.848

# Same assay, conditions: first series; concentration 0.00457247; fraction of control
row,Structure (SMILES),normalized signal at concentration 0.00457247
1,CN(C)c1ccc2c(c1)[C@@H]1C[C@@H](CC(=O)NC3CCCCC3)O[C@@H](CO)[C@@H]1O2 [BRD-K29474997-001-01-2],1.19
2,COc1ccc(S(=O)(=O)N(C)C[C@H]2Oc3ccc(NC(=O)Cc4cn(C)c5ccccc45)cc3C(=O)N([C@H](C)CO)C[C@@H]2C)cc1 [BRD-K30240821-001-02-4],0.7066

# Same assay, conditions: first series; concentration 0.0137174; fraction of control
row,Structure (SMILES),normalized signal at concentration 0.0137174
1,CN(C)c1ccc2c(c1)[C@@H]1C[C@@H](CC(=O)NC3CCCCC3)O[C@@H](CO)[C@@H]1O2 [BRD-K29474997-001-01-2],0.90
2,COc1ccc(S(=O)(=O)N(C)C[C@H]2Oc3ccc(NC(=O)Cc4cn(C)c5ccccc45)cc3C(=O)N([C@H](C)CO)C[C@@H]2C)cc1 [BRD-K30240821-001-02-4],0.8032

# Same assay, conditions: first series; concentration 0.0411523; fraction of control
row,Structure (SMILES),normalized signal at concentration 0.0411523
1,CN(C)c1ccc2c(c1)[C@@H]1C[C@@H](CC(=O)NC3CCCCC3)O[C@@H](CO)[C@@H]1O2 [BRD-K29474997-001-01-2],0.87
2,COc1ccc(S(=O)(=O)N(C)C[C@H]2Oc3ccc(NC(=O)Cc4cn(C)c5ccccc45)cc3C(=O)N([C@H](C)CO)C[C@@H]2C)cc1 [BRD-K30240821-001-02-4],0.8311

# Same assay, conditions: first series; concentration 0.123457; fraction of control
row,Structure (SMILES),normalized signal at concentration 0.123457
1,CN(C)c1ccc2c(c1)[C@@H]1C[C@@H](CC(=O)NC3CCCCC3)O[C@@H](CO)[C@@H]1O2 [BRD-K29474997-001-01-2],0.89
2,COc1ccc(S(=O)(=O)N(C)C[C@H]2Oc3ccc(NC(=O)Cc4cn(C)c5ccccc45)cc3C(=O)N([C@H](C)CO)C[C@@H]2C)cc1 [BRD-K30240821-001-02-4],1.098

# Same assay, conditions: first series; concentration 0.37037; fraction of control
row,Structure (SMILES),normalized signal at concentration 0.37037
1,CN(C)c1ccc2c(c1)[C@@H]1C[C@@H](CC(=O)NC3CCCCC3)O[C@@H](CO)[C@@H]1O2 [BRD-K29474997-001-01-2],0.92
2,COc1ccc(S(=O)(=O)N(C)C[C@H]2Oc3ccc(NC(=O)Cc4cn(C)c5ccccc45)cc3C(=O)N([C@H](C)CO)C[C@@H]2C)cc1 [BRD-K30240821-001-02-4],0.9739

# Same assay, conditions: first series; concentration 1.11111; fraction of control
row,Structure (SMILES),normalized signal at concentration 1.11111
1,CN(C)c1ccc2c(c1)[C@@H]1C[C@@H](CC(=O)NC3CCCCC3)O[C@@H](CO)[C@@H]1O2 [BRD-K29474997-001-01-2],1.25
2,COc1ccc(S(=O)(=O)N(C)C[C@H]2Oc3ccc(NC(=O)Cc4cn(C)c5ccccc45)cc3C(=O)N([C@H](C)CO)C[C@@H]2C)cc1 [BRD-K30240821-001-02-4],0.9836

# Same assay, conditions: first series; concentration 3.33333; fraction of control
row,Structure (SMILES),normalized signal at concentration 3.33333
1,CN(C)c1ccc2c(c1)[C@@H]1C[C@@H](CC(=O)NC3CCCCC3)O[C@@H](CO)[C@@H]1O2 [BRD-K29474997-001-01-2],0.99
2,COc1ccc(S(=O)(=O)N(C)C[C@H]2Oc3ccc(NC(=O)Cc4cn(C)c5ccccc45)cc3C(=O)N([C@H](C)CO)C[C@@H]2C)cc1 [BRD-K30240821-001-02-4],0.9041

# Same assay, conditions: read-out: PbLuc_IC50; sheet 2nd round; Broad compounds, dose response
row,Structure (SMILES),IC50
1,CN(C)c1ccc2c(c1)[C@@H]1C[C@@H](CC(=O)NC3CCCCC3)O[C@@H](CO)[C@@H]1O2 [BRD-K29474997-001-01-2],> 10 µM
2,COc1ccc(S(=O)(=O)N(C)C[C@H]2Oc3ccc(NC(=O)Cc4cn(C)c5ccccc45)cc3C(=O)N([C@H](C)CO)C[C@@H]2C)cc1 [BRD-K30240821-001-02-4],> 10 µM

# Same assay, conditions: second series of dose-response columns; concentration 10; fraction of control
row,Structure (SMILES),normalized signal at concentration 10
1,CN(C)c1ccc2c(c1)[C@@H]1C[C@@H](CC(=O)NC3CCCCC3)O[C@@H](CO)[C@@H]1O2 [BRD-K29474997-001-01-2],1.28
2,COc1ccc(S(=O)(=O)N(C)C[C@H]2Oc3ccc(NC(=O)Cc4cn(C)c5ccccc45)cc3C(=O)N([C@H](C)CO)C[C@@H]2C)cc1 [BRD-K30240821-001-02-4],0.9286

# Same assay, conditions: second series; concentration 0.000508053; fraction of control
row,Structure (SMILES),normalized signal at concentration 0.000508053
1,CN(C)c1ccc2c(c1)[C@@H]1C[C@@H](CC(=O)NC3CCCCC3)O[C@@H](CO)[C@@H]1O2 [BRD-K29474997-001-01-2],1.12
2,COc1ccc(S(=O)(=O)N(C)C[C@H]2Oc3ccc(NC(=O)Cc4cn(C)c5ccccc45)cc3C(=O)N([C@H](C)CO)C[C@@H]2C)cc1 [BRD-K30240821-001-02-4],0.993

# Same assay, conditions: second series; concentration 0.00152416; fraction of control
row,Structure (SMILES),normalized signal at concentration 0.00152416
1,CN(C)c1ccc2c(c1)[C@@H]1C[C@@H](CC(=O)NC3CCCCC3)O[C@@H](CO)[C@@H]1O2 [BRD-K29474997-001-01-2],1.06
2,COc1ccc(S(=O)(=O)N(C)C[C@H]2Oc3ccc(NC(=O)Cc4cn(C)c5ccccc45)cc3C(=O)N([C@H](C)CO)C[C@@H]2C)cc1 [BRD-K30240821-001-02-4],0.893

# Same assay, conditions: second series; concentration 0.00457247; fraction of control
row,Structure (SMILES),normalized signal at concentration 0.00457247
1,CN(C)c1ccc2c(c1)[C@@H]1C[C@@H](CC(=O)NC3CCCCC3)O[C@@H](CO)[C@@H]1O2 [BRD-K29474997-001-01-2],1.06
2,COc1ccc(S(=O)(=O)N(C)C[C@H]2Oc3ccc(NC(=O)Cc4cn(C)c5ccccc45)cc3C(=O)N([C@H](C)CO)C[C@@H]2C)cc1 [BRD-K30240821-001-02-4],0.9938

# Same assay, conditions: second series; concentration 0.0137174; fraction of control
row,Structure (SMILES),normalized signal at concentration 0.0137174
1,CN(C)c1ccc2c(c1)[C@@H]1C[C@@H](CC(=O)NC3CCCCC3)O[C@@H](CO)[C@@H]1O2 [BRD-K29474997-001-01-2],1.04
2,COc1ccc(S(=O)(=O)N(C)C[C@H]2Oc3ccc(NC(=O)Cc4cn(C)c5ccccc45)cc3C(=O)N([C@H](C)CO)C[C@@H]2C)cc1 [BRD-K30240821-001-02-4],0.8741

# Same assay, conditions: second series; concentration 0.0411523; fraction of control
row,Structure (SMILES),normalized signal at concentration 0.0411523
1,CN(C)c1ccc2c(c1)[C@@H]1C[C@@H](CC(=O)NC3CCCCC3)O[C@@H](CO)[C@@H]1O2 [BRD-K29474997-001-01-2],1.09
2,COc1ccc(S(=O)(=O)N(C)C[C@H]2Oc3ccc(NC(=O)Cc4cn(C)c5ccccc45)cc3C(=O)N([C@H](C)CO)C[C@@H]2C)cc1 [BRD-K30240821-001-02-4],1.056

# Same assay, conditions: second series; concentration 0.123457; fraction of control
row,Structure (SMILES),normalized signal at concentration 0.123457
1,CN(C)c1ccc2c(c1)[C@@H]1C[C@@H](CC(=O)NC3CCCCC3)O[C@@H](CO)[C@@H]1O2 [BRD-K29474997-001-01-2],0.92
2,COc1ccc(S(=O)(=O)N(C)C[C@H]2Oc3ccc(NC(=O)Cc4cn(C)c5ccccc45)cc3C(=O)N([C@H](C)CO)C[C@@H]2C)cc1 [BRD-K30240821-001-02-4],0.8643

# Same assay, conditions: second series; concentration 0.37037; fraction of control
row,Structure (SMILES),normalized signal at concentration 0.37037
1,CN(C)c1ccc2c(c1)[C@@H]1C[C@@H](CC(=O)NC3CCCCC3)O[C@@H](CO)[C@@H]1O2 [BRD-K29474997-001-01-2],0.91
2,COc1ccc(S(=O)(=O)N(C)C[C@H]2Oc3ccc(NC(=O)Cc4cn(C)c5ccccc45)cc3C(=O)N([C@H](C)CO)C[C@@H]2C)cc1 [BRD-K30240821-001-02-4],1.021

# Same assay, conditions: second series; concentration 1.11111; fraction of control
row,Structure (SMILES),normalized signal at concentration 1.11111
1,CN(C)c1ccc2c(c1)[C@@H]1C[C@@H](CC(=O)NC3CCCCC3)O[C@@H](CO)[C@@H]1O2 [BRD-K29474997-001-01-2],1.04
2,COc1ccc(S(=O)(=O)N(C)C[C@H]2Oc3ccc(NC(=O)Cc4cn(C)c5ccccc45)cc3C(=O)N([C@H](C)CO)C[C@@H]2C)cc1 [BRD-K30240821-001-02-4],1.07

# Same assay, conditions: second series; concentration 3.33333; fraction of control
row,Structure (SMILES),normalized signal at concentration 3.33333
1,CN(C)c1ccc2c(c1)[C@@H]1C[C@@H](CC(=O)NC3CCCCC3)O[C@@H](CO)[C@@H]1O2 [BRD-K29474997-001-01-2],1.16
2,COc1ccc(S(=O)(=O)N(C)C[C@H]2Oc3ccc(NC(=O)Cc4cn(C)c5ccccc45)cc3C(=O)N([C@H](C)CO)C[C@@H]2C)cc1 [BRD-K30240821-001-02-4],1.082

# Same assay, conditions: sheet 2nd round; maximal inhibition in dose response
row,Structure (SMILES),PbLuc_max_inhibition (%)
1,CN(C)c1ccc2c(c1)[C@@H]1C[C@@H](CC(=O)NC3CCCCC3)O[C@@H](CO)[C@@H]1O2 [BRD-K29474997-001-01-2],13%
2,COc1ccc(S(=O)(=O)N(C)C[C@H]2Oc3ccc(NC(=O)Cc4cn(C)c5ccccc45)cc3C(=O)N([C@H](C)CO)C[C@@H]2C)cc1 [BRD-K30240821-001-02-4],29%
